Laboratory results reported in patent US20070009593A1, “Methods of treating cancer” (Indianan University Advanced Research, priority 2002, published 2007).
Like-named read-outs stand apart in the source and are kept apart here.

Experiments:
[1] = tested on: Caco 2 C9 control (pRC/CMV vector); test: MTT assay, 96 well plate, 48 h; assay type: cell-based; details: Caco-2, 48 h, read-out: Ritonavir IC50
[2] = tested on: Surface her2; test: surface her2 in breast cancer lines under ritonavir; assay type: cell-based, human; details: SKBR-3, ritonavir treatment
[3] = tested on: breast cancer lines; test: propidium iodide flow cytometry; assay type: cell-based, human; details: at the IC50 concentration of ritonavir
[4] = tested on: H23; test: MTT assay, NSCLC cell line; assay type: cell-based; details: Homo sapiens, NCI-H23
[5] = tested on: Caco 2 cells; test: proliferation / combination assay in colon cancer cells; assay type: cell-based; details: Homo sapiens
[6] = tested on: MDA-MB-435 human breast cancer xenografts; test: nude mouse mammary fat pad xenograft model; assay type: in vivo, nude mice; details: 19 days
Procedure: An inoculum of 5×10^5 MDA-MB-435 cells in 100 μl was injected into the mammary fat pad of each female animal. […] The tumor growth rate was reduced by 16% in the mice treated at 20 mg/kg, compared to the mice treated with vehicle.

[7] = tested on: H460; test: MTT assay, NSCLC cell line; assay type: cell-based; details: Homo sapiens
[8] = tested on: EGF receptor; test: EGF receptor expression in Caco 2 cells, Western blot; assay type: cell-based; details: 20 μM, 24 hours, confluent Caco 2
Procedure: The medium was not changed. After 24 hours, the cells were harvested by Triton X-100 lysis, and Western blot analysis was performed on the supernatant, which contains solubilized EGF receptor.

[9] = tested on: calpain cleavage of α-fodrin; test: NFF score, IHC with PP1 antibody, ritonavir treated mice; assay type: in vivo; details: 10 days
Source text: Differentiation of the stratum spinosum of tongue epithelium was affected, with a reduction of nuclear involution as well as an increase in the keratinized layer (FIGS. 5A-5C). […] Previous observations of the proliferative rate of tongue compared to skin in mice indicate that tongue is a more proliferative epithelium (Hume, W. J. Cell Tissue Kinet. 19:195-203 (1986)).
The antiserum specific for the calpain-dependent α-fodrin cleavage, PP1, was used at 1:100 dilution. Competition with specific peptide blocked nuclear staining. The size bar is […]. […] Arrows indicate basal layer nuclei. The vertical bar indicates maximum thickness of the keratinized layer in each image.

[10] = tested on: HUVEC; test: HUVEC tubule formation assay; assay type: cell-based; details: Homo sapiens, 72 h, fibrin gel, VEGF and bFGF, counted at three days, read-out: IC50, formation of new endothelial cell tubules
Procedure: Endothelial cell tubule formation in a fibrin clot is an analog of angiogenesis and was used to assay angiogenesis inhibitors (Brown et al., Lab. Investig. 75:539, 1996). HUVEC were coated on Cytodex™ microcarrier beads (Pharmacia) at a density of 30 HUVEC per bead, in a siliconized dish containing HUVEC complete medium, for 24 hours. […] Tubules were counted at three days.

[11] = tested on: Surface EGFR; test: surface EGFR in breast cancer lines under ritonavir; assay type: cell-based, human; parameters: reference not given here
[12] = tested on: MDA-MD-435 cells; test: proliferation assay, MTT, 24 hours; assay type: cell-based; details: Homo sapiens, 24 hours exposure, averaging 2 experiments
Procedure: Proliferation assays were done by plating cells in a 96 well plate at […] for the 231 cells and 5×10^3 cells per well for the 435 cells. The cells were allowed to attach and grow for 24 hours. […] The cells were allowed to grow for 24 hours and the number of viable cells was measured by MTT assay.

[13] = tested on: MDA-436LXSN (vector control line); test: MTT assay, breast cancer line; assay type: cell-based; details: Homo sapiens, read-out: Ritonavir IC50
[14] = tested on: Caco 2 2-3 (calpastatin over-expressing); test: MTT assay, 96 well plate, 48 h; assay type: cell-based; details: Homo sapiens, Caco-2, read-out: Ritonavir IC50, 2-3 line
[15] = tested on: HUVEC; test: HUVEC cell spreading assay; assay type: cell-based, human; details: 40 μM
Procedure: Cells were fixed in 3.7% formaldehyde in PBS, blocked and stained with Oregon-green phalloidin 514 (Molecular Probes), and then digitally photographed using a Zeiss inverted fluorescence microscope equipped with a CCD camera. Cell areas were measured on the digital images using the Spot program (Diagnostic Imaging).

[16] = tested on: MDA-MB-435 (435); test: clonogenic assay (LD50), ritonavir sensitivity; assay type: cell-based, human; details: 435 cells
Source text: (§1) MCF7 and MDA-MB-435 (435) had relatively low m-calpain levels, whereas MDA-MB-231 (231), MDA-MB-436 (436) and Caco 2 had relatively high m-calpain levels.
(§2) We note that the IC50 is derived from MTT assays, while the LD50 is derived from clonogenic assays.

[17] = tested on: MDA-MB-231 (231); test: clonogenic assay (LD50), ritonavir sensitivity; assay type: cell-based, human; details: 231 cells
Source text: as §1, §2

[18] = tested on: MDA-MB-436 (436); test: clonogenic assay (LD50), ritonavir sensitivity; assay type: cell-based, human; details: 436 cells
Source text: as §1, §2

[19] = tested on: MCF7; test: clonogenic assay (LD50), ritonavir sensitivity; assay type: cell-based, human
Source text: as §1, §2

[20] = biological target: T1, m-calpain (Homo sapiens, UniProt P17655); test: ionomycin activated m-calpain activity in Caco 2A cells; assay type: cell-based; details: 0, 5, 10, 20, and 120 μM, FIG. 3
T1 construct: endogenous in cells; host or cells: Caco 2A
T1 sequence (P17655 20-700 limits assumed): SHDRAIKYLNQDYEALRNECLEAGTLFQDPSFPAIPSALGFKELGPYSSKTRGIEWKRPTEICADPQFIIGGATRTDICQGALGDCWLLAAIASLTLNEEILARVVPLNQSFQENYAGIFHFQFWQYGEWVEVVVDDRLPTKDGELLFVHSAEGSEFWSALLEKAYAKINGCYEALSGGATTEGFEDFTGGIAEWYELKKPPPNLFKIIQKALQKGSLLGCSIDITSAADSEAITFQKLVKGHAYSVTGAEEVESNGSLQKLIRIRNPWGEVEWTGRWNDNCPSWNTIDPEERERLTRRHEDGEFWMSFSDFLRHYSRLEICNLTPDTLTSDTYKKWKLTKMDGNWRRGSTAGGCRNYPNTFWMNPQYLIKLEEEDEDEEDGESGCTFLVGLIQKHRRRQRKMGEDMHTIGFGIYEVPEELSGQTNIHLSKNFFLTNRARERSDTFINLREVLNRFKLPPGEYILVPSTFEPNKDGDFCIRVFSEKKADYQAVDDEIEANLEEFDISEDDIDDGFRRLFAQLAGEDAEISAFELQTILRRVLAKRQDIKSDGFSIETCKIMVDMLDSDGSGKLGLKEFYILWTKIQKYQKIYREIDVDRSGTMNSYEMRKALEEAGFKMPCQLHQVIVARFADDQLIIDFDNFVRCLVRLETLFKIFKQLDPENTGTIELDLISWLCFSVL
T1 sequence (P04632 whole entry partner): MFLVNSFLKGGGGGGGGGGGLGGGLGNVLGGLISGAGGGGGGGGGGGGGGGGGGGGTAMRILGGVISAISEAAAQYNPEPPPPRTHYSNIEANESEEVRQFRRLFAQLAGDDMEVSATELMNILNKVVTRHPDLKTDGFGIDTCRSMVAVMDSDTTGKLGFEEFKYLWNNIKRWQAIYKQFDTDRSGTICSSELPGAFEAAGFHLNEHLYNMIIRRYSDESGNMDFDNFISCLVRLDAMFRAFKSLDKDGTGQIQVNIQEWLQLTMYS
Procedure: (The Caco 2a calls were treated and analyzed as in Example 4).

[21] = tested on: breast cancer lines; test: Annexin V/propidium iodide flow cytometry; assay type: cell-based, human; details: at the ritonavir IC50 and IC80
[22] = tested on: H522; test: MTT assay, NSCLC cell line; assay type: cell-based; details: Homo sapiens

Structure (SMILES): CC(C)c1nc(CN(C)C(=O)N[C@H](C(=O)N[C@@H](Cc2ccccc2)C[C@H](O)[C@H](Cc2ccccc2)NC(=O)OCc2cncs2)C(C)C)cs1 [Ritonavir, ritonavir]
- IC50 [1]: 30 µM
- Surface her2 Ritonavir [2]: 0.4
- cell cycle [3]: induces cell cycle arrest
- IC50 [4]: 44 µM
- IC50 ([5]; Caco-2, 48 h, read-out: IC50 (50% inhibition of proliferation)): 30 µM
- IC50 ([5]; Caco 2, single agent, read-out: IC50): 45 µM
- tumor growth rate reduced, compared to vehicle ([6]; 10 mg/kg daily gavage, one outlier tumor removed): 49%
- tumor growth rate reduced, compared to vehicle ([6]; 20 mg/kg daily gavage, all tumors): 16%
- tumor growth rate reduced, compared to vehicle ([6]; 20 mg/kg daily gavage, outlier tumor removed): 55%
- IC50 ([7]; NCI-H460): 47.5 µM
- IC80 ([7]; NCI-H460, single agent): 100 µM
- EGF receptor down regulated [8]: 20%
- NFF score ([9]; tongue basal cell layer, 12 μM peak): 34%
- NFF score ([9]; tongue basal cell layer, 67 μM peak): 1%
- NFF score ([9]; ventral skin basal cell layer, 12 μM peak): 27%
- NFF score ([9]; ventral skin basal cell layer, 67 μM peak): 17%
- IC50 [10]: 16 µM
- Surface EGFR (Ritonavir) ([11]; MCF7, ritonavir treatment): 1
- Surface EGFR (Ritonavir) ([11]; MDA-231, ritonavir treatment): 0.5
- Surface EGFR (Ritonavir) ([11]; MDA-436, ritonavir treatment): 0.5
- Surface EGFR (Ritonavir) ([11]; SKBR-3, ritonavir treatment): 0.36
- Surface EGFR (Ritonavir) ([11]; T47D, ritonavir treatment): 1
- IC50 [12]: ~150 µM
- IC50 [13]: 42 µM
- IC50 [14]: 20 µM
- reduction of cell area ([15]; 1 hour of spreading): 15%
- cell area ([15]; 1 hour spreading on fibronectin): 4100±160 μm^2
- LD50 [16]: 16 µM
- LD50 [17]: 60 μm
- LD50 [18]: 55 µM
- LD50 [19]: 25 µM
- inomycin activated m-calpain [20]: dose dependent decrease
- apoptosis [21]: increased apoptosis
- IC50 ([22]; NCI-H522): 42.5 µM
- IC80 ([22]; NCI-H522, single agent): 90 µM
